The text below walks through data of patent US20050170331A1, “Method for characterizing metabolic stability of a drug” (priority 2003, published 2005).

The data set concerns hepatocytes. Put plainly: Metabolic stability in hepatocyte suspension by hyperpolarised 13C NMR. It is filed as in vitro ADME. Conditions: hepatocytes 1·10^6 cells/ml in RPMI 1640, 37° C., 30 s incubation, drug candidate approximately 0.46 mM, DNP hyperpolarised. On the procedure: The concentration of hepatocytes was 1·10^6 cells/ml in a suspension of RPMI 1640 medium. 1 ml of this suspension was placed in a 10 mm NMR tube with a bottom plug, reducing the active volume to […]. The tube was placed in a 9.4 T magnet with the temperature of the probe equilibrated to 37° C. A tube was connected to the bottom of the NMR tube to allow for injection of the hyperpolarised drug candidate solution into the cell suspension.
^13C2-sodiumfumerate was diluted in water and mixed (1:1 w/w) with a glycerol solution containing 40 mM trityl. The liquid sample was frozen as droplets in liquid nitrogen. 84.3 mg of this sample (3.84 mg of ^13C2-sodiumfumerate) was placed in the polariser and hyperpolarised for two hours at 93.945 GHz and 100 mW (DNP method). The dissolution was performed with Tris buffer containing 100 mg/l EDTA (pH 7.4, 20 mM, 6 ml). The active dissolution volume was 5.5 ml with full recovery of the sample. A 1 ml syringe was filled completely (volume: 1100 μl) with the dissolved ^13C2-sodiumfumerate solution, a total of 100 μl of this solution was quickly transferred to the liquid-NMR magnet and injected into the cell suspension, resulting in a total drug candidate concentration of approximately 0.46 mM. […]

Consider `O=C([O-])/C=C/C(=O)[O-].[Na+].[Na+]` [^13C2-sodiumfumerate], for which the “metabolites of the drug candidate observed in the 13C NMR spectrum of the mixture” value was “two different metabolites of the drug candidate, namely succinate and malate”.
